The values that follow come from publication PMC10693969 (Parasites, Hosts and Diseases, 2023).

Data set [1] relates to A. polyphaga (ATCC-30461) trophozoites. The data set can be described thus: In vitro anti-Acanthamoeba activity, A. polyphaga trophozoite viability. In kind it is cell-based. The note with it: for SI, sensitivity index (CC50 C6 glial cells / IC50 A. polyphaga): ratio CC50 C6 glial cells / IC50 A. polyphaga; for antiamoebic activity against A. polyphaga (in words): in vitro.
Data set [2] has as its system A. castellanii (ATCC-30868) trophozoites. Description: In vitro anti-Acanthamoeba activity, A. castellanii trophozoite viability. In kind it is cell-based. The note with it: for SI, sensitivity index (CC50 C6 glial cells / IC50 A. castellanii): ratio CC50 C6 glial cells / IC50 A. castellanii; for antiamoebic activity against A. castellanii (in words): in vitro.
Data set [3] has as its system C6 rat glial cells (ATCC CCL-107). Description: Cytotoxicity against C6 glial cells. The data set is classed as cell-based. The note with it: for CC50: read-out: C6 glial cells (CC50 ±SD), C6 rat glial cells, 0–400 μM, mean±SD of 3 independent assays.
The test system of data set [4] is Naegleria fowleri trophozoites (Carter NF69 strain, ATCC 30215). Description: In vitro anti-N. fowleri activity, trophozoite viability. The note with it: for SI, sensitivity index (CC50 C6 glial cells / IC50 N. fowleri): ratio CC50 C6 glial cells / IC50 N. fowleri; for antiamoebic activity against N. fowleri (in words): in vitro. The data set is classed as cell-based.

The test system of data set [5] is murine macrophages J774A.1. The note with it: cited from earlier work.
Data set [6] in a line: Cytotoxicity against C6 glial cells. In kind it is cell-based, rat. The following applies: rat, C6 glial cells.
Data set [7] relates to A. castellanii trophozoites. The following applies: cited from earlier work.
Setting [8] is: read-out: A. polyphaga (IC50 ±SD), trophozoites, 0–400 μM, 25°C, 48 h, mean±SD of 3 independent experiments.
Where [9] appears, read: read-out: A. castellanii (IC50 ±SD), trophozoites, 0–400 μM, 25°C, 48 h, mean±SD of 3 independent experiments.
Where [10] appears, read: read-out: N. fowleri (IC50 ±SD), trophozoites, 0–400 μM, 37°C, 48 h, mean±SD of 3 independent experiments.
[11] abbreviates: Acanthamoeba polyphaga, ATCC30461, 48 h, read-out: A. polyphaga (IC50 ±SD, μM), trophozoites, 0–400 μM, 25°C, 48 h, mean±SD of 3 independent experiments.
Setting [12] is: Acanthamoeba castellanii, ATCC30868, 48 h, read-out: A. castellanii (IC50 ±SD, μM), trophozoites, 0–400 μM, 25°C, 48 h, mean±SD of 3 independent experiments.
The mark [13] stands for this setting: Naegleria fowleri, ATCC30215, 48 h, read-out: N. fowleri (IC50 ±SD, μM), trophozoites, 0–400 μM, 37°C, 48 h, mean±SD of 3 independent experiments.

Read-outs that look alike come from different tables or passages of the source.

For orientation: IC50 means the midpoint of a concentration-inhibition curve. By CC50 is commonly meant the concentration that lowers cell viability or growth by half. Turning to `Oc1cc(O)c2c(c1)O[C@H](c1cc(O)c(O)c(O)c1)[C@H](O)C2` [(−)-Epigallocatechin, (−)-epigallocatechin], the “SI, sensitivity index (CC50 C6 glial cells / IC50 A. polyphaga)” value in data set [1] was 11.55; in data set [1] (listed as (−)-epigallocatechin) it was greater than 8. Further, the IC50 in data set [1] (setting [8]) was 24.16 ± 0.16 µM; in data set [1] (read-out: A. polyphaga (IC50 ±SD), trophozoites, 0–400 μM, 25°C, 48 h, mean±SD of 3 independent experiments, listed as (−)-epigallocatechin), less than 50 µM; in data set [2] (setting [9]) it was 32.1 ± 1.03 µM; in data set [2] (read-out: A. castellanii (IC50 ±SD), trophozoites, 0–400 μM, 25°C, 48 h, mean±SD of 3 independent experiments, listed as (−)-epigallocatechin), less than 50 µM; in data set [4] (setting [10]), 114.6 ± 0.48 µM. Further, the “SI, sensitivity index (CC50 C6 glial cells / IC50 A. castellanii)” value in data set [2] is listed as 8.68; in data set [2] (listed as (−)-epigallocatechin) it was greater than 8. The CC50 in data set [3] came out at 279 ± 0.3 µM. In data set [4], the “SI, sensitivity index (CC50 C6 glial cells / IC50 N. fowleri)” value came out at 2.44. Further, the “antiamoebic activity against N. fowleri (in words)” value in data set [4] (trophozoites) is “did not show significative anti-N. fowleri activities”.

As to `O=c1cc(-c2ccc(O)cc2)oc2cc(O)cc(O)c12` [Apigenin, apigenin], the “cytotoxicity against murine macrophages J774A.1 (in words)” value in data set [5] is reported as “potential cytotoxicity”. In addition, the half-inhibitory concentration (IC50) in data set [1] (setting [11]) is less than 50 µM; in data set [1] (setting [8]), 28.33 ± 0.13 µM; in data set [2] (setting [12]), less than 50 µM; in data set [2] (setting [9]), 43.4 ± 0.8 µM; in data set [4] (setting [13]), 94.65 ± 0.58 µM. For the same molecule, the “SI, sensitivity index (CC50 C6 glial cells / IC50 A. polyphaga)” value in data set [1] amounted to 8.58. In addition, the “SI, sensitivity index (CC50 C6 glial cells / IC50 A. castellanii)” value in data set [2] came out at 5.60. Besides, in data set [3], the “cytotoxicity to C6 glial cells (in words)” value is “did not show significative cytotoxicity”. In data set [6], this molecule had a CC50 of 243.1 ± 0.98 µM. In data set [4], the “SI, sensitivity index (CC50 C6 glial cells / IC50 N. fowleri)” value came to 2.57. Also, in data set [4] (trophozoites), the “antiamoebic activity against N. fowleri (in words)” value is given as “did not show significative anti-N. fowleri activities”.

Regarding `COc1ccc2c(c[n+](C)c3c4cc5c(cc4ccc23)OCO5)c1OC` [Chelerythrine, chelerythrine chloride], the IC50 turned out to be 102 ± 1.4 µM in data set [1] (Acanthamoeba polyphaga, ATCC30461, 48 h, read-out: A. polyphaga (IC50 ±SD, μM)); 148.1 ± 1.38 µM in data set [2] (Acanthamoeba castellanii, ATCC30868, 48 h, read-out: A. castellanii (IC50 ±SD, μM)); 11.8 ± 1.15 µM in data set [4] (Naegleria fowleri, ATCC30215, 48 h, read-out: N. fowleri (IC50 ±SD, μM)). For the same molecule, the “antiamoebic activity against A. polyphaga (in words)” value in data set [1] (trophozoites) was “did not exhibit potential or selective antiamoebic activity”. In addition, the “antiamoebic activity against A. castellanii (in words)” value in data set [2] (trophozoites) is on record as “did not exhibit potential or selective antiamoebic activity”. For the same molecule, the figures for the “cytotoxicity to C6 glial cells (in words)” value in data set [3] and in data set [3] (listed as chelerythrine) were “potent cytotoxicity” and “strong toxicity”, respectively. This molecule yielded a CC50 in data set [6] of 16.4 ± 0.45 µM. Moreover, the “SI, sensitivity index (CC50 C6 glial cells / IC50 N. fowleri)” value in data set [4] is recorded as 1.39. In addition, the “antiamoebic activity against N. fowleri (in words)” value in data set [4] (trophozoites) is “strong antiamoebic activity”.

As for `COc1cc(/C=C/C(O)=C/C(=O)/C=C/c2ccc(O)cc2)ccc1O` [Demethoxycurcumin, demethoxycurcumin], the “toxicity to A. castellanii trophozoites (in words)” value in data set [7] is given as “toxic”. In addition, the “SI, sensitivity index (CC50 C6 glial cells / IC50 A. polyphaga)” value in data set [1] is greater than 13.48; in data set [1] (listed as demethoxycurcumin), greater than 8. Moreover, the IC50 in data set [1] (setting [8]) is 21.93 ± 0.18 µM; in data set [1] (read-out: A. polyphaga (IC50 ±SD), trophozoites, 0–400 μM, 25°C, 48 h, mean±SD of 3 independent experiments, listed as demethoxycurcumin) it was less than 40 µM; in data set [2] (setting [12]) it was less than 50 µM; in data set [2] (setting [9]) it was 36.1 ± 0.82 µM; in data set [2] (read-out: A. castellanii (IC50 ±SD), trophozoites, 0–400 μM, 25°C, 48 h, mean±SD of 3 independent experiments, listed as demethoxycurcumin), less than 40 µM; in data set [4] (setting [13]) it was less than 30 µM. In addition, the IC50 is 27.1 ± 0.35 µM in data set [4] (setting [10]) and less than 40 µM in data set [4] (read-out: N. fowleri (IC50 ±SD), trophozoites, 0–400 μM, 37°C, 48 h, mean±SD of 3 independent experiments, listed as demethoxycurcumin). In addition, the results for the “SI, sensitivity index (CC50 C6 glial cells / IC50 A. castellanii)” value in data set [2] and in data set [2] (listed as demethoxycurcumin) were greater than 8.19 and greater than 8, respectively. In data set [6], this molecule came in with a CC50 greater than 296 µM. Also, the “SI, sensitivity index (CC50 C6 glial cells / IC50 N. fowleri)” value in data set [4] is greater than 7; in data set [4] (listed as demethoxycurcumin), greater than 8.

Consider `Oc1ccc(/C=C/c2cc(O)cc(O)c2)cc1` [Resveratrol, resveratrol], for which the “toxicity to A. castellanii trophozoites (in words)” value in data set [7] is reported as “toxic”. In addition, the IC50 in data set [1] (setting [11]) is less than 50 µM; in data set [1] (setting [8]), 31.35 ± 0.08 µM; in data set [2] (setting [12]), less than 50 µM; in data set [2] (setting [9]) it was 40.03 ± 0.39 µM; in data set [4] (setting [13]) it was 47.19 ± 0.36 µM. Moreover, the “SI, sensitivity index (CC50 C6 glial cells / IC50 A. polyphaga)” value in data set [1] was determined as 7.04. Also, the “SI, sensitivity index (CC50 C6 glial cells / IC50 A. castellanii)” value in data set [2] stood at 5.52. Further, the CC50 in data set [6] was determined as 220.78 ± 0.09 µM. Further, in data set [4], the “SI, sensitivity index (CC50 C6 glial cells / IC50 N. fowleri)” value was determined as 4.68.

Consider `O=C(/C=C/c1ccc(O)c(O)c1)O[C@H](Cc1ccc(O)c(O)c1)C(=O)O` [Rosmarinic acid, rosmarinic acid], for which the “SI, sensitivity index (CC50 C6 glial cells / IC50 A. polyphaga)” value is given as greater than 12.38 in data set [1] and greater than 8 in data set [1] (listed as rosmarinic acid). Also, the IC50 is 22.4 ± 0.78 µM in data set [1] (setting [8]); less than 50 µM in data set [1] (read-out: A. polyphaga (IC50 ±SD), trophozoites, 0–400 μM, 25°C, 48 h, mean±SD of 3 independent experiments, listed as rosmarinic acid); less than 50 µM in data set [2] (setting [12]); 31.66 ± 0.31 µM in data set [2] (setting [9]); 77.7 ± 0.97 µM in data set [4] (setting [13]). The “SI, sensitivity index (CC50 C6 glial cells / IC50 A. castellanii)” value is greater than 8.77 in data set [2] and greater than 8 in data set [2] (listed as rosmarinic acid). Further, the CC50 in data set [6] was greater than 278 µM. Also, the “SI, sensitivity index (CC50 C6 glial cells / IC50 N. fowleri)” value in data set [4] was greater than 3.57. The “antiamoebic activity against N. fowleri (in words)” value in data set [4] (trophozoites) was “did not show significative anti-N. fowleri activities”.

As for (+)-pinostrobin, the IC50 in data set [1] (setting [8]), in data set [2] (setting [9]) and in data set [4] (setting [10]) was greater than 370 µM in each case. Also, in data set [1] (trophozoites), the “antiamoebic activity against A. polyphaga (in words)” value is “did not exhibit potential or selective antiamoebic activity”. Also, the “antiamoebic activity against A. castellanii (in words)” value in data set [2] (trophozoites) is reported as “did not exhibit potential or selective antiamoebic activity”. In data set [3], the CC50 is greater than 370 µM.

Take (±)-catechin hydrate: the IC50 in data set [1] (setting [8]), in data set [2] (setting [9]) and in data set [4] (setting [10]) was greater than 345 µM each time. Further, in data set [1] (trophozoites), the “antiamoebic activity against A. polyphaga (in words)” value is listed as “did not exhibit potential or selective antiamoebic activity”. Also, the “antiamoebic activity against A. castellanii (in words)” value in data set [2] (trophozoites) is “did not exhibit potential or selective antiamoebic activity”. For the same molecule, in data set [3], the CC50 was greater than 345 µM.

In the case of silybin (A+B) mixture, in data set [1], the “SI, sensitivity index (CC50 C6 glial cells / IC50 A. polyphaga)” value stood at 6.31. The IC50 is 15.82 ± 0.06 µM in data set [1] (setting [8]); less than 50 µM in data set [1] (read-out: A. polyphaga (IC50 ±SD), trophozoites, 0–400 μM, 25°C, 48 h, mean±SD of 3 independent experiments, listed as silybin (A+B)); 24.5 ± 0.56 µM in data set [2] (setting [9]); less than 50 µM in data set [2] (read-out: A. castellanii (IC50 ±SD), trophozoites, 0–400 μM, 25°C, 48 h, mean±SD of 3 independent experiments, listed as silybin (A+B)); 24.2 ± 0.27 µM in data set [4] (setting [10]). Further, in data set [2], the “SI, sensitivity index (CC50 C6 glial cells / IC50 A. castellanii)” value worked out at 4.08. Further, the CC50 in data set [3] was determined as 99.89 ± 0.78 µM. Besides, the “SI, sensitivity index (CC50 C6 glial cells / IC50 N. fowleri)” value in data set [4] was determined as 4.13.
